Laboratory results taken from article PMC6350207 (Drug Metabolism Letters, 2018).

Key:
recombinant UGT enzymes = test: Reaction phenotyping with recombinant UGT Supersomes; assay type: in vitro ADME, human; conditions: substrate 20 µM, UGT 0.2 mg/mL, 2 hours
[1] = in humans; cited from earlier work

SMILES | Metabolism to the corresponding glucuronide by recombinant UGT enzymes (recombinant UGT enzymes) | Share of drug metabolized to its corresponding glucuronide [1]
CC(C)Cc1ccc(CC(=O)O)cc1 [Ibufenac] | none of the recombinant UGT enzymes studied in the present investigation were found to metabolize ibufenac | 
CCCC(CCC)C(=O)O [valproic acid] |  | 50%
